Results on 1 substance are retold here after US20110097338A1, “Use of Substances for Sensitization of Tumor Cells to Radiation and/or Chemotherapy” (TECHNISCHE UNIVERSITAET DRESDEN, priority 2008, published 2011).

Type in all cases: cell-based, human
In one data set the test system is PINCH-1 protein. Briefly: Western Blot of PINCH-1 knock-down after siRNA transfection. The following applies: HCT-116 and DLD-1 cells; 20 nmol/l siRNA with oligo fectamine; lysates 48 h after transfection. The method, then:
(§1) Human colorectal tumor cell lines of the type HCT-116 (ATCC No. CCL-247) and of the type DLD-1 (ATCC No. CCL-221) were transfected with PINCH-1-siRNA of the SEQ ID No. 5. For this purpose, 3×10^5 tumor cells on 6-well plates (BD, Heidelberg) in Dulbecco's Modified Eagle (DMEM; Gibco, Karlsruhe) with Glutamax-I (L-alanyl-L-glutamine), 10% serum (FCS; Biochrom, Berlin) and 1% of non-essential amino acids (Gibco, Karlsruhe) were seeded and cultured at 37° C. and 7% CO2. After 24 h the cells were washed once with Opti-MEM I (Invitrogen, Karlsruhe) and transfected with oligo fectamine (0.2%) and 20 nmol/l PINCH-1-siRNA for 8 h without serum in Opti-MEM I. Afterwards 10% serum was added and the cells incubated for another 16 h at 37° C. and 7% CO2. After a total of 24 h after transfection the cells were washed with phosphate-buffered saline solution (PBS; PAA, Cölbe) and removed with trypsin/EDTA solution. […] Of this portion, protein lysates were produced for examining knock-downs in the Western Blot, the proteins were separated by means of SDS PAGE, transferred onto a nitrocellulose membrane and detected with a mouse-anti-PINCH-1-antibody (clone 49; BD Heidelberg) as well as a peroxidase-coupled goat-anti-mouse-secondary antibody and the ECL system (GE Healthcare, Munich).
For orientation: A western blot detects proteins with antibodies after separation by electrophoresis.

A further data set concerns HCT-116. In words: Clonogenic survival after radiation (colony forming assay), siRNA transfection. The following applies: siRNA 20 nmol/l, irradiated 48 h later with 0-6 Gy. The method, then:
as §1

The next data set has as its system DLD-1. The description is as above. To be noted: siRNA 20 nmol/l, irradiated 48 h later with 0-6 Gy. How it is done:
as §1

d = 2'-deoxy (DNA); r = 2'-OH (RNA)

As to “GCUAUAUCUCAAAGCAGUUtt (GCUAUAUCUCAAAGCAGUUTT; siRNA; sugars from the 5' end r19 d2, backbone not given here) [PINCH-1-siRNA of the SEQ ID No. 5]”, the “formation of PINCH-1 protein / PINCH-1 expression (Western Blot, FIG. 3)” value with PINCH-1 protein was “prevented”. The “survival rate after radiation vs. control-siRNA (FIG. 4)” value with HCT-116 and in the data set on DLD-1 was “lowered significantly” each time.
